Results on four compounds are retold here after ChEMBL document CHEMBL1133981, “Synthesis of a reported calpain inhibitor isolated from Streptomyces griseus” (Bioorg Med Chem Lett, 2001).

SMILES strings stand for the structures. pIC50: −log10 of the molar value. Active and inactive are the calls of the source. No cut-off for these calls is given here.

As usually defined, the pIC50 is −log10 of the IC50, conventionally taken in molar units. A lower pIC50 goes with a large IC50.

The target of test [1] is T1, Calpain-1 catalytic subunit (Homo sapiens, UniProt P07384).
T1 sequence (P07384 whole entry): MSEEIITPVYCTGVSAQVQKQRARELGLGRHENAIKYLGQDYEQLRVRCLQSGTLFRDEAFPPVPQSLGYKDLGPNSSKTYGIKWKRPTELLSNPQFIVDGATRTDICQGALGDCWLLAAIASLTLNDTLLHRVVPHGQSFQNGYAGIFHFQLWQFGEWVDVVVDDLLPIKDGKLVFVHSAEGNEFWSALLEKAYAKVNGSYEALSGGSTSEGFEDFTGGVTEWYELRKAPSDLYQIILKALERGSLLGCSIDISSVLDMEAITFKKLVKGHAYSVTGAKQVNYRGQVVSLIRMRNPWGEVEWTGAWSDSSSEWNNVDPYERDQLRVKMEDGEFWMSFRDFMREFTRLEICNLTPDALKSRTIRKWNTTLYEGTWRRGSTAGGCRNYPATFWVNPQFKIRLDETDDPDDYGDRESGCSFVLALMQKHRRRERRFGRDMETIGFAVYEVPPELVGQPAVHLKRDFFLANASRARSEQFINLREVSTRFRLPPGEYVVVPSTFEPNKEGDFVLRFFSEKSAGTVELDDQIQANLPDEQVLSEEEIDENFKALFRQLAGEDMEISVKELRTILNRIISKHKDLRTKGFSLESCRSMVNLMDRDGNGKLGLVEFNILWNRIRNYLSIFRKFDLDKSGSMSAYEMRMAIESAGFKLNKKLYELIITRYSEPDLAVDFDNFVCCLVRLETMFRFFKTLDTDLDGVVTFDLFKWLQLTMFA
The test can be described thus: Compound was tested for its inhibitory activity against calpain […] (SC488).

Test [2] has as its target T2, Calpain small subunit 1 (Sus scrofa) (UniProt P04574).
T2 sequence (whole entry): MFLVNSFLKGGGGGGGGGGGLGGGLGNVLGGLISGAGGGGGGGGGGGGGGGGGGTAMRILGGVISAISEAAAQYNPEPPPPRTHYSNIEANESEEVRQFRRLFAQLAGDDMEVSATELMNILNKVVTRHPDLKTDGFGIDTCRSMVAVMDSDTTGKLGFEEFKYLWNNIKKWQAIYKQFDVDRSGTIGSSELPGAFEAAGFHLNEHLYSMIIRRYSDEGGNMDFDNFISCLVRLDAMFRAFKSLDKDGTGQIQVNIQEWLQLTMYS
In words: Compound was tested for its inhibitory activity against porcine erythrocyte Calpain 1 up to a concentration of 1 mM; NA=Not active.

Test [3] concerns the target T1, Calpain-1 catalytic subunit. In words: Compound was tested for its inhibitory activity against calpain […]. On the set-up: […].

With `CN1C(=O)[C@H](Cc2ccc(O)cc2)N(C)C(=O)[C@@H]1Cc1ccc(O)cc1`, the negative-log IC50 (pIC50) in test [1] was 6.10. For the same compound, the outcome in test [2] was inactive. In the case of `CN1C(=O)[C@H](Cc2ccccc2)N(C)C(=O)[C@@H]1Cc1ccccc1`, the result in test [2] was inactive. In test [3], `CC(C)c1ncc(Cc2ccccc2)[nH]c1=O` showed a pIC50 of 5.92. Turning to `CN1C(=O)[C@H](Cc2ccccc2)N(C)C(=O)[C@H]1Cc1ccccc1`, in test [2], the result was inactive.
